Data as given in PubChem BioAssay AID248 (DTP/NCI, 2004).
Inconclusive results and toxic doses are left out. Rule as the data show it: active = T/C of 150% or more; inactive = T/C below 125%.

System: L1210 leukemia ip in BDF1 mice, survival T/C
Test: NCI In Vivo Anticancer Drug Screen. Data for tumor model L1210 Leukemia (intraperitoneal) in B6D2F1 (BDF1) mice
Details: endpoint: mean survival time, higher = longer survival
Outline: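 Mice bearing the transplanted tumor received compound or vehicle. Survival of the treated group was divided by that of the vehicle-treated control group to give the ratio.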

[1] = dose: 100.0 mg/kg/injection, schedule: Q01DX001 (ip), vehicle: carboxymethylcellulose (CMC)
[2] = dose: 200.0 mg/kg/injection, schedule: Q01DX001 (ip), vehicle: carboxymethylcellulose (CMC)
[3] = dose: 400.0 mg/kg/injection, schedule: Q01DX001 (ip), vehicle: carboxymethylcellulose (CMC)
[4] = dose: 100.0 mg/kg/injection, schedule: Q01DX001 (ip), vehicle: Klucel (hydroxypropylcellulose) (HPC)
[5] = dose: 100.0 mg/kg/injection, schedule: Q01DX009 (ip), vehicle: saline with Tween-80
[6] = dose: 100.0 mg/kg/injection, schedule: Q04DX003 (ip), vehicle: saline with Tween-80
[7] = dose: 200.0 mg/kg/injection, schedule: Q01DX001 (ip), vehicle: Klucel (hydroxypropylcellulose) (HPC)
[8] = dose: 200.0 mg/kg/injection, schedule: Q01DX009 (ip), vehicle: saline with Tween-80
[9] = dose: 200.0 mg/kg/injection, schedule: Q04DX003 (ip), vehicle: saline with Tween-80
[10] = dose: 400.0 mg/kg/injection, schedule: Q04DX003 (ip), vehicle: saline with Tween-80
[11] = dose: 50.0 mg/kg/injection, schedule: Q01DX009 (ip), vehicle: saline with Tween-80
[12] = dose: 100.0 mg/kg/injection, schedule: Q04DX002 (ip), vehicle: saline with Tween-80
[13] = dose: 200.0 mg/kg/injection, schedule: Q04DX002 (ip), vehicle: saline with Tween-80
[14] = dose: 400.0 mg/kg/injection, schedule: Q04DX002 (ip), vehicle: saline with Tween-80
[15] = dose: 100.0 mg/kg/injection, schedule: Q01DX009 (ip), vehicle: Klucel (hydroxypropylcellulose) (HPC)
[16] = dose: 200.0 mg/kg/injection, schedule: Q01DX009 (ip), vehicle: Klucel (hydroxypropylcellulose) (HPC)
[17] = dose: 400.0 mg/kg/injection, schedule: Q01DX009 (ip), vehicle: Klucel (hydroxypropylcellulose) (HPC)

Measured: T/C

CCC1([N+](=O)[O-])COP(=O)(NCc2cccnc2)OC1 (stereo not drawn)
inactive: [1] 92 % of control | [2] 101 % of control | [3] 116 % of control

Cc1ccc(NC(=O)c2ccc([N+](=O)[O-])cc2)c(C)c1
inactive: [4] 91 % of control | [5] 96 % of control | [6] 94 % of control | [7] 94 % of control | [8] 102 % of control | [9] 96 % of control | dose: 400.0 mg/kg/injection, schedule: Q01DX001 (ip), vehicle: Klucel (hydroxypropylcellulose) (HPC) 112 % of control | dose: 400.0 mg/kg/injection, schedule: Q01DX009 (ip), vehicle: saline with Tween-80 96 % of control | [10] 99 % of control

[Cl][Ni].[NH-]C(Cc1ccccc1)C(=O)O (stereo not drawn)
inactive: dose: 6.25 mg/kg/injection, schedule: Q04DX003 (ip), vehicle: saline 98 % of control | dose: 12.5 mg/kg/injection, schedule: Q04DX003 (ip), vehicle: saline 98 % of control | dose: 25.0 mg/kg/injection, schedule: Q04DX003 (ip), vehicle: saline 91 % of control

CC(C)NCCOC(=O)c1ccc(N)cc1
inactive: dose: 75.0 mg/kg/injection, schedule: Q01DX001 (ip), vehicle: saline 102 % of control | dose: 150.0 mg/kg/injection, schedule: Q01DX001 (ip), vehicle: saline 105 % of control

C=C(C)C1CCC(C)CC1O (stereo not drawn)
inactive: [11] 111 % of control | [5] 97 % of control | [8] 108 % of control

OCC1CC(n2cnc3c(NO)ncnc32)C(O)C1O (stereo not drawn)
inactive: dose: 25.0 mg/kg/injection, schedule: Q01DX009 (ip), vehicle: saline with Tween-80 103 % of control | [11] 92 % of control | dose: 75.0 mg/kg/injection, schedule: Q01DX009 (ip), vehicle: saline with Tween-80 86 % of control

O=C(CCCC(=O)NO)NO
inactive: [12] 113 % of control | dose: 100.0 mg/kg/injection, schedule: Q04DX002 (ip), vehicle: saline 100 % of control | [13] 100 % of control | dose: 200.0 mg/kg/injection, schedule: Q04DX002 (ip), vehicle: saline 97 % of control | [14] 97 % of control | dose: 400.0 mg/kg/injection, schedule: Q04DX002 (ip), vehicle: saline 113 % of control

NC(CSCc1ccccc1)C(=O)OCc1ccccc1 (stereo not drawn)
inactive: [15] 98 % of control | dose: 100.0 mg/kg/injection, schedule: Q04DX003 (ip), vehicle: Klucel (hydroxypropylcellulose) (HPC) 100 % of control | [16] 92 % of control | dose: 200.0 mg/kg/injection, schedule: Q04DX003 (ip), vehicle: Klucel (hydroxypropylcellulose) (HPC) 89 % of control | [17] 95 % of control | dose: 400.0 mg/kg/injection, schedule: Q04DX003 (ip), vehicle: Klucel (hydroxypropylcellulose) (HPC) 96 % of control

CCCNC(=O)Nc1ccccc1OC
inactive: dose: 100.0 mg/kg/injection, schedule: Q04DX002 (ip), vehicle: Klucel (hydroxypropylcellulose) (HPC) 97 % of control | dose: 200.0 mg/kg/injection, schedule: Q04DX002 (ip), vehicle: Klucel (hydroxypropylcellulose) (HPC) 87 % of control | dose: 400.0 mg/kg/injection, schedule: Q04DX002 (ip), vehicle: Klucel (hydroxypropylcellulose) (HPC) 94 % of control

OC1COC(c2ccccc2)OC1C(O)C1OC(c2ccccc2)OCC1O (stereo not drawn)
inactive: [12] 89 % of control | [13] 105 % of control | [14] 102 % of control

Nc1ccc(OCc2ccccc2)cc1
inactive: [11] 96 % of control | dose: 50.0 mg/kg/injection, schedule: Q04DX003 (ip), vehicle: saline with Tween-80 100 % of control | [5] 87 % of control | [6] 103 % of control | [9] 109 % of control

O=C(OCCn1c(-c2ccccn2)nc2ccccc21)C(O)(c1ccccc1)c1ccccc1
inactive: [4] 102 % of control | [7] 93 % of control

CC(CO)(CO)N=Cc1cc(Cl)ccc1O
inactive: [1] 91 % of control | [2] 96 % of control | [3] 109 % of control

CCOC(=O)c1ccc(N(CC(S)CNc2cc(C)nc(N)n2)S(=O)(=O)c2ccc(C)cc2)cc1 (stereo not drawn)
inactive: dose: 25.0 mg/kg/injection, schedule: Q01DX001 (ip), vehicle: saline 95 % of control | dose: 50.0 mg/kg/injection, schedule: Q01DX001 (ip), vehicle: saline 90 % of control

O=C(c1ccccc1Cl)N(Cc1ccccc1)c1ccccc1
inactive: [15] 102 % of control | [16] 103 % of control | [17] 100 % of control

CCN(CC)C(=O)Sc1ccc(SC(=O)N(CC)CC)cc1
inactive: dose: 12.5 mg/kg/injection, schedule: Q04DX002 (ip), vehicle: saline with Tween-80 90 % of control | dose: 25.0 mg/kg/injection, schedule: Q04DX002 (ip), vehicle: saline with Tween-80 97 % of control | dose: 50.0 mg/kg/injection, schedule: Q04DX002 (ip), vehicle: saline with Tween-80 93 % of control | [6] 107 % of control | [9] 102 % of control | [10] 97 % of control

Oc1c(Cl)cc(Cl)cc1C1N(Cc2ccc(N(CCCl)CCCl)cc2Cl)CCCN1Cc1ccc(N(CCCl)CCCl)cc1Cl
inactive: dose: 50.0 mg/kg/injection, schedule: Q01DX001 (ip), vehicle: carboxymethylcellulose (CMC) 109 % of control | [1] 105 % of control | [2] 103 % of control | [3] 103 % of control

C=C(C)Cn1cnc2c1c(=O)n(C)c(=O)n2C
inactive: dose: 100.0 mg/kg/injection, schedule: Q04DX003 (ip), vehicle: saline 103 % of control | dose: 200.0 mg/kg/injection, schedule: Q04DX003 (ip), vehicle: saline 98 % of control | dose: 400.0 mg/kg/injection, schedule: Q04DX003 (ip), vehicle: saline 89 % of control

Cc1cccc2c3c([nH]c12)CCSC3
inactive: [6] 108 % of control | [9] 105 % of control | [10] 111 % of control

Clc1cc(CBr)c(Cl)c(Cl)c1CBr
inactive: dose: 6.25 mg/kg/injection, schedule: Q01DX009 (ip), vehicle: saline sonified 94 % of control | dose: 6.25 mg/kg/injection, schedule: Q04DX003 (ip), vehicle: Klucel (hydroxypropylcellulose) (HPC) 97 % of control | dose: 12.5 mg/kg/injection, schedule: Q01DX009 (ip), vehicle: saline sonified 94 % of control | dose: 12.5 mg/kg/injection, schedule: Q04DX003 (ip), vehicle: Klucel (hydroxypropylcellulose) (HPC) 91 % of control | dose: 25.0 mg/kg/injection, schedule: Q01DX009 (ip), vehicle: saline sonified 91 % of control | dose: 25.0 mg/kg/injection, schedule: Q04DX003 (ip), vehicle: Klucel (hydroxypropylcellulose) (HPC) 98 % of control

CCOC(=O)c1cc(OCC)nc(SC)n1
inactive: dose: 25.0 mg/kg/injection, schedule: Q01DX Z (ip), vehicle: methylcellulose (MC) 86 % of control | dose: 50.0 mg/kg/injection, schedule: Q01DX Z (ip), vehicle: methylcellulose (MC) 100 % of control

NC(C1SCCS1)C(O)C(O)C(O)CO (stereo not drawn)
inactive: dose: 100.0 mg/kg/injection, schedule: Q01DX009 (ip), vehicle: saline 98 % of control | dose: 200.0 mg/kg/injection, schedule: Q01DX009 (ip), vehicle: saline 91 % of control | dose: 400.0 mg/kg/injection, schedule: Q01DX009 (ip), vehicle: saline 96 % of control

CN(Cc1cnc2nc(N)nc(N)c2n1)c1cc(Cl)c(C(=O)NC(CCC(=O)O)C(=O)O)cc1Cl (stereo not drawn)
inactive: dose: 6.25 mg/kg/injection, schedule: Q01DX009 (ip), vehicle: sodium bicarbonate 106 % of control | dose: 12.5 mg/kg/injection, schedule: Q01DX009 (ip), vehicle: sodium bicarbonate 115 % of control

O=C(O)C(C(=O)c1cccc([N+](=O)[O-])c1)C(=O)c1cccc([N+](=O)[O-])c1
inactive: [2] 100 % of control | [3] 94 % of control

O=S(=O)(Nc1ccccc1Cl)c1ccccc1
inactive: dose: 100.0 mg/kg/injection, schedule: Q01DX009 (ip), vehicle: gum acacia 100 % of control | dose: 100.0 mg/kg/injection, schedule: Q04DX003 (ip), vehicle: gum acacia 93 % of control | dose: 200.0 mg/kg/injection, schedule: Q01DX009 (ip), vehicle: gum acacia 98 % of control | dose: 200.0 mg/kg/injection, schedule: Q04DX003 (ip), vehicle: gum acacia 95 % of control | dose: 400.0 mg/kg/injection, schedule: Q01DX009 (ip), vehicle: gum acacia 94 % of control | dose: 400.0 mg/kg/injection, schedule: Q04DX003 (ip), vehicle: gum acacia 95 % of control
